Key:
[1] = target: T1, human recombinant 15-PGDH (Homo sapiens, UniProt P15428); assay: Recombinant 15-PGDH enzymatic inhibition assay (PGDH-Lumi, NADH signal); format: biochemical; settings: recombinant 15-PGDH; 15 min pre-incubation, 60 min reaction with PGE2 and NAD+, NADH signal
T1 sequence (P15428 1-266): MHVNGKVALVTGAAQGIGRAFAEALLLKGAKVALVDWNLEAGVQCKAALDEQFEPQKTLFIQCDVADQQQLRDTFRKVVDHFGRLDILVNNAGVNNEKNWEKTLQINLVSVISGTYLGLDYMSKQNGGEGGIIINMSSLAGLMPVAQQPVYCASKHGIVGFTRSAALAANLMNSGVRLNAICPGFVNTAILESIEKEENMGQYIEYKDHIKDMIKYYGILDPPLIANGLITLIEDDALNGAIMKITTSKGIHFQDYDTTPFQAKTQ
Method in brief: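 Buffer 50 mM Tris pH 7.5 with 0.01% Tween-20 and […]; compound, 22 two-fold dilutions, pre-incubated with enzyme 15 min before substrate.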

[2] = target: T2, 15-PGDH in A549 cells (Homo sapiens, UniProt P15428); assay: A549 cellular 15-PGDH assay (PGE2 accumulation, HTRF); format: cell-based; settings: interleukin-stimulated, inhibitor 24 hrs, PGE2 by competitive HTRF, read-out: A549 Cell Assay IC50
T2 construct: endogenous in cells; host or cells: A549
T2 sequence (P15428 1-266): T1 sequence (P15428 1-266)
Method in brief: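 Supernatant PGE2 was quantified by competitive HTRF, in which sample PGE2 blocks FRET between a europium cryptate-labelled antibody and labelled PGE2. It came from A549 epithelial cells induced with IL-13. IC50s were calculated from the inversely proportional signal.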

## Cn1cc(-c2ncc3cc([C@]4(O)C[C@@H](C(F)(F)F)C4)sc3n2)cn1 [Compound C120C, cis-1-(2-(1-methyl-1H-pyrazol-4-yl)thieno[2,3-d]pyrimidin-6-yl)-3-(trifluoromethyl)cyclobutanol]
[1]
  IC50: 101 nM
[2]
  IC50: 66.7 nM

## Cc1c2ccc(-c3cnc4nn(C)cc4c3)nc2sc1[C@]1(O)C[C@@H](C(F)F)C1 [Compound C83C, cis-3-(difluoromethyl)-1-(3-methyl-6-(2-methyl-2H-pyrazolo[3,4-b]pyridin-5-yl)thieno[2,3-b]pyridin-2-yl)cyclobutanol]
[1]
  IC50: 5.33 nM
[2]
  IC50: 12.3 nM

## Cc1cn2cc(-c3ccc4cc([C@H](O)C5CC(F)(F)C5)sc4n3)ccc2n1 (single isomer, unassigned) [Compound B48R]
[1]
  IC50: 0.4 nM
[2]
  IC50: 1.77 nM

## Cn1nnc2cc(-c3ccc4nc([C@]5(O)C[C@@H](C(F)F)C5)sc4n3)cnc21 [Compound C82C, cis-3-(difluoromethyl)-1-(5-(3-methyl-3H-[1,2,3]triazolo[4,5-b]pyridin-6-yl)[1,3]thiazolo[5,4-b]pyridin-2-yl)cyclobutanol]
[1]
  IC50: 9.49 nM
[2]
  IC50: 34.2 nM

## Cn1cc2cc(-c3ncc4cc(C5(O)CC6(CC(F)(F)C6)C5)sc4n3)cnc2n1 [Compound C116, 6,6-difluoro-2-(2-(2-methyl-2H-pyrazolo[3,4-b]pyridin-5-yl)thieno[2,3-d]pyrimidin-6-yl)spiro[3.3]heptan-2-ol]
[1]
  IC50: 0.43 nM
[2]
  IC50: 1.95 nM

## Cn1cc2cc(-c3ccc4cc(C(O)CCC(F)(F)F)sc4c3)cnc2n1 (stereo not drawn) [Compound B60, 4,4,4-trifluoro-1-(6-(2-methyl-2H-pyrazolo[3,4-b]pyridin-5-yl)-1-benzothiophen-2-y1)-1-butanol]
[1]
  IC50: 3.03 nM
[2]
  IC50: 9.36 nM

## Cc1c([C@H](O)C2CCOCC2)sc2nc(-c3cnc4nn(C)cc4c3)ccc12 (single isomer, unassigned) [Compound B90R]
[1]
  IC50: 0.952 nM
[2]
  IC50: 0.857 nM

## CO[C@H]1C[C@](O)(c2cc3cnc(-c4cnc5nn(C)cc5c4)nc3s2)C1 [Compound C94C, cis-3-methoxy-1-(2-(2-methyl-2H-pyrazolo[3,4-b]pyridin-5-yl)thieno[2,3-d]pyrimidin-6-yl)cyclobutanol]
[1]
  IC50: 2 nM
[2]
  IC50: 1.45 nM

## Cn1cc2cc(-c3ccc4c(Cl)c(C5(O)CC(C)(C)C5)sc4n3)cnc2n1 [Compound C73, 1-(3-chloro-6-(2-methyl-2H-pyrazolo[3,4-b]pyridin-5-yl)thieno[2,3-b]pyridin-2-yl)-3,3-dimethylcyclobutanol]
[1]
  IC50: 2.44 nM
[2]
  IC50: 1.26 nM

## CCC[C@H](O)c1cc2ccc(-c3cnc4nn(C)cc4c3)nc2s1 (single isomer, unassigned) [Compound B27S]
[1]
  IC50: 12.3 nM
[2]
  IC50: 1.78 nM

## Cn1cc2cc(-c3ccc4cc([C@]5(O)C[C@@H](C(F)(F)F)C5)sc4n3)cnc2n1 [Compound C29C, cis-1-(6-(2-methyl-2H-pyrazolo[3,4-b]pyridin-5-yl)thieno[2,3-b]pyridin-2-yl)-3-(trifluoromethyl)cyclobutanol]
[1]
  IC50: 0.3 nM
[2]
  IC50: 0.0513 nM

## Cc1nc2ccc(-c3ccc4cc(C5(O)CC(F)(F)C5)sc4n3)cc2o1 [Compound C39, 3,3-difluoro-1-(6-(2-methyl-1,3-benzoxazol-6-yl)thieno[2,3-b]pyridin-2-yl)cyclobutanol]
[1]
  IC50: 10 nM
[2]
  IC50: 2.87 nM

## Cn1cc2cc(-c3ccc4cc([C@]5(O)C[C@@H](C6CC6)C5)sc4n3)cnc2n1 (single isomer, unassigned) [Compound C62C, cis-3-cyclopropyl-1-(6-(2-methyl-2H-pyrazolo[3,4-b]pyridin-5-yl)thieno[2,3-b]pyridin-2-yl)cyclobutanol]
[1]
  IC50: 0.366 nM
[2]
  IC50: 0.0321 nM

## Cn1cc2cc(-c3ccc4cc(C5(O)CCC(F)(F)CC5)sc4n3)cnc2n1 [Compound C15, 4,4-difluoro-1-(6-(2-methyl-2H-pyrazolo[3,4-b]pyridin-5-yl)thieno[2,3-b]pyridin-2-yl)cyclohexanol]
[1]
  IC50: 2.85 nM
[2]
  IC50: 12.8 nM

## CO[C@]1(C(F)(F)F)C[C@@](O)(c2cc3ccc(-c4cnc5nn(C)cc5c4)nc3s2)C1 (single isomer, unassigned) [Compound C66C, cis-3-methoxy-1-(6-(2-methyl-2H-pyrazolo[3,4-b]pyridin-5-yl)thieno[2,3-b]pyridin-2-yl)-3-(trifluoromethyl)cyclobutanol]
[1]
  IC50: 0.852 nM
[2]
  IC50: 0.206 nM

## CCCC(O)c1cc2ccc(-c3cnc4nn(C)cc4c3)nc2s1 (stereo not drawn) [Compound B27, 1-(6-(2-methyl-2H-pyrazolo[3,4-b]pyridin-5-yl)thieno[2,3-b]pyridin-2-yl)-1-butanol]
[1]
  IC50: 0.402 nM
[2]
  IC50: 0.597 nM

## Cn1cc2cc(-c3ccc4cc([C@@H](O)[C@@H]5CCOC5)sc4n3)cnc2n1 (single isomer, unassigned) [Compound B19SR]
[1]
  IC50: 1.87 nM
[2]
  IC50: 3.53 nM

## Cc1c(C2(O)CC(F)(F)C2)sc2nc(-c3cnc4nn(C)cc4c3)ccc12 [Compound C77, 3,3-difluoro-1-(3-methyl-6-(2-methyl-2H-pyrazolo[3,4-b]pyridin-5-yl)thieno[2,3-b]pyridin-2-yl)cyclobutanol]
[1]
  IC50: 7.69 nM
[2]
  IC50: 9.15 nM

## O[C@@H](c1cc2ccc(-c3ccc4nccnc4c3)nc2s1)C1CC(F)(F)C1 (single isomer, unassigned) [Compound B52R]
[1]
  IC50: 0.291 nM
[2]
  IC50: 0.69 nM

## Cc1c([C@@H](CO)C2CC(F)(F)C2)sc2nc(-c3cnc4nn(C)cc4c3)ccc12 (single isomer, unassigned) [Compound B93R]
[1]
  IC50: 174 nM
[2]
  IC50: 245 nM

## Cn1cc2cc(-c3ccc4cc([C@H](O)[C@@H]5CCOC5)sc4n3)cnc2n1 (single isomer, unassigned) [Compound B19RR]
[1]
  IC50: 0.244 nM
[2]
  IC50: 0.381 nM

## Cn1cc2cc(-c3ncc4cc([C@H](O)C5CC(F)(F)C5)sc4n3)cnc2n1 (single isomer, unassigned) [Compound B75R]
[1]
  IC50: 0.382 nM
[2]
  IC50: 0.0162 nM

## CC[C@@H](O)c1cc2c(C3CC3)cc(-c3cnc4nn(C)cc4c3)nc2s1 (single isomer, unassigned) [Compound B13R]
[1]
  IC50: 0.57 nM
[2]
  IC50: 3.2 nM

## Cn1cc2cc(-c3ccc4cc([C@]5(O)C[C@]6(CCO6)C5)sc4n3)cnc2n1 (single isomer, unassigned) [Compound C56C, cis-6-(6-(2-methyl-2H-pyrazolo[3,4-b]pyridin-5-yl)thieno[2,3-b]pyridin-2-yl)-1-oxaspiro[3.3]heptan-6-ol]
[1]
  IC50: 0.423 nM
[2]
  IC50: 0.18 nM

## Cn1cc2cc(-c3ncc4cc([C@]5(O)C[C@@H](OC(F)(F)F)C5)sc4n3)cnc2n1 [Compound C100C, cis-1-(2-(2-methyl-2H-pyrazolo[3,4-b]pyridin-5-yl)thieno[2,3-d]pyrimidin-6-yl)-3-(trifluoromethoxy)cyclobutanol]
[1]
  IC50: 0.3 nM
[2]
  IC50: 0.671 nM

## Cn1cc2cc(-c3ccc4nc(C5(O)CC(C)(C)C5)sc4n3)cnc2n1 [Compound C68, 3,3-dimethyl-1-(5-(2-methyl-2H-pyrazolo[3,4-b]pyridin-5-yl)[1,3]thiazolo[5,4-b]pyridin-2-yl)cyclobutanol]
[1]
  IC50: 0.58 nM
[2]
  IC50: 0.361 nM

## Nc1ncc(-c2ccc3cc(C4(O)CC(F)(F)C4)sc3n2)cn1 [Compound C38, 1-(6-(2-amino-5-pyrimidinyl)thieno[2,3-b]pyridin-2-yl)-3,3-difluorocyclobutanol]
[1]
  IC50: 4.59 nM
[2]
  IC50: 3.75 nM

Reference: patent publication US20240409557A1, “5,6-FUSED AND 6,6-FUSED BICYCLIC ALCOHOLS AND ETHERS AND COMPOSITIONS FOR USE AS 15-PROSTAGLANDIN DEHYDROGENASE MODULATORS” (AMGEN INC., priority 2023, published 2024)
